In ChEMBL document CHEMBL1156094, “Imidazopyridine-5,6,7,8-tetrahydro-8-quinolinamine derivatives with potent activity against HIV-1” (Bioorg Med Chem Lett, 2009):
Activity calls are given as the source filed them. No cut-off for these calls is given here.

How the values were obtained:
[1] = system: Human immunodeficiency virus 1; experiment: Antiviral activity against HIV1 3B infected human HOS cells expressing human CXCR4 and CD4 assessed as inhibition of viral infection by luciferase reporter gene assay; assay type: functional, organism-based; conditions: Human immunodeficiency virus 1, 3B
[2] = system: Human immunodeficiency virus 1; experiment: Antiviral activity against HIV1 3B infected human HOS cells expressing human CXCR4 and CD4 assessed as inhibition of viral infection in presence of human serum albumin and alpha-acid glycoprotein by luciferase reporter gene assay; assay type: functional; set-up: unit not given here
[3] = Cytotoxicity against human HOS cells; assay type: cell-based
[4] = Clearance in rat at 1 mg/kg, iv; assay type: ADME, organism-based; set-up: dose 1 mg/kg, route intravenous; conditions: in vivo
[5] = Clearance in Beagle dog at 1 mg/kg, iv; assay type: ADME, organism-based, Canis lupus familiaris; set-up: dose 1 mg/kg, route intravenous; conditions: in vivo
[6] = Clearance in cynomolgus monkey at 1 mg/kg, iv; assay type: ADME, organism-based, Macaca fascicularis; set-up: dose 1 mg/kg, route intravenous; conditions: in vivo
[7] = Volume of distribution at steady state in rat at 1 mg/kg, iv; assay type: ADME, organism-based; set-up: dose 1 mg/kg, route intravenous; conditions: in vivo, read-out: Vdss
[8] = Volume of distribution at steady state in Beagle dog at 1 mg/kg, iv; assay type: ADME, organism-based, Canis lupus familiaris; set-up: dose 1 mg/kg, route intravenous; conditions: in vivo, read-out: Vdss
[9] = Volume of distribution at steady state in cynomolgus monkey at 1 mg/kg, iv; assay type: ADME, organism-based, Macaca fascicularis; set-up: dose 1 mg/kg, route intravenous; conditions: in vivo, read-out: Vdss
[10] = Half life in rat at 1 mg/kg, iv; assay type: ADME, organism-based; set-up: dose 1 mg/kg, route intravenous; conditions: in vivo
[11] = Half life in Beagle dog at 1 mg/kg, iv; assay type: ADME, organism-based, Canis lupus familiaris; set-up: dose 1 mg/kg, route intravenous; conditions: in vivo
[12] = Half life in cynomolgus monkey at 1 mg/kg, iv; assay type: ADME, organism-based, Macaca fascicularis; set-up: dose 1 mg/kg, route intravenous; conditions: in vivo
[13] = Oral bioavailability in rat at 3 mg/kg; assay type: ADME, organism-based; conditions: in vivo
[14] = Oral bioavailability in Beagle dog at 3 mg/kg; assay type: ADME, organism-based, Canis lupus familiaris; conditions: in vivo
[15] = Oral bioavailability in cynomolgus monkey at 3 mg/kg; assay type: ADME, organism-based, Macaca fascicularis; conditions: in vivo
[16] = target: C-X-C chemokine receptor type 4 (Homo sapiens) (UniProt P61073); experiment: Antagonist activity at CXCR4; assay type: functional
Chain of C-X-C chemokine receptor type 4 (Homo sapiens) (P61073 whole entry): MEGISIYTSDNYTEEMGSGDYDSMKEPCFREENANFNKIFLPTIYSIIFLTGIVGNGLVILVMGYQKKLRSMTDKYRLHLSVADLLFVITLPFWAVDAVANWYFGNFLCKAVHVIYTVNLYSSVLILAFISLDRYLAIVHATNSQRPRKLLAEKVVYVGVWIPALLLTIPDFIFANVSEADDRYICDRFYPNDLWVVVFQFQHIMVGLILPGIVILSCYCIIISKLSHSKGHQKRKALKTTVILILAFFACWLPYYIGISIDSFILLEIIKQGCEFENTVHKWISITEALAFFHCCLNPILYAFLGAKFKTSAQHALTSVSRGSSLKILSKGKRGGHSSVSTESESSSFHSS

## CN1CCN(c2cccc3nc(CN(C)[C@H]4CCCc5cccnc54)cn23)CC1
[1]
  IC50: 2 nM
[2]
  Activity: 1.5
[3]
  CC50: 4500 nM
[4]
  clearance: 14 mL/min/kg
[5]
  clearance: 18 mL/min/kg
[6]
  clearance: 6 mL/min/kg
[7]
  Vd: 4.9 L/kg
[8]
  Vd: 8.5 L/kg
[9]
  Vd: 3.7 L/kg
[10]
  half-life: 5.5 h
[11]
  half-life: 7.6 h
[12]
  half-life: 10 h
[13]
  bioavailability: 11%
[14]
  bioavailability: 13%
[15]
  bioavailability: 10%
[16]
  Activity: Active

## CN1CCC(N(C)c2cccc3nc(CN(C)[C@H]4CCCc5cccnc54)cn23)C1 (some centres undefined)
[1]
  IC50: 30 nM
[2]
  Activity: 1.3
[3]
  CC50: 10800 nM
[16]
  Activity: Active

## CN1CCN(c2cccc3nc(CN(Cc4ccccc4)[C@H]4CCCc5cccnc54)cn23)CC1
[1]
  IC50: 28 nM
[3]
  CC50: 9300 nM
[16]
  Activity: Active

## CN1CCC(N(C)c2cccc3nc(CN(C)[C@H]4CCCc5cccnc54)cn23)CC1
[1]
  IC50: 49 nM
[3]
  CC50: 12500 nM
[16]
  Activity: Active

## CN(C)[C@H]1CCN(c2cccc3nc(CN(C)[C@H]4CCCc5cccnc54)cn23)C1
[1]
  IC50: 8 nM
[2]
  Activity: 3
[3]
  CC50: 2100 nM
[4]
  clearance: 9.5 mL/min/kg
[7]
  Vd: 4.5 L/kg
[10]
  half-life: 7.9 h
[13]
  bioavailability: 2%
[16]
  Activity: Active

## CN1CCN(c2cccc3nc(CN(CC(F)(F)F)C4CCCc5cccnc54)cn23)CC1 (racemic)
[1]
  IC50: 127 nM
[3]
  CC50: > 5000 nM
[16]
  Activity: Active

## CCCCN(Cc1cn2c(N3CCN(C)CC3)cccc2n1)[C@H]1CCCc2cccnc21
[1]
  IC50: 3 nM
[3]
  CC50: 5300 nM
[16]
  Activity: Active

## CN(Cc1cn2c(N3CCN4CCCC4C3)cccc2n1)[C@H]1CCCc2cccnc21 (some centres undefined)
[1]
  IC50: 4 nM
[3]
  CC50: 3900 nM
[16]
  Activity: Active

## CN1CCN(c2cccn3cc(CN(C)[C@H]4CCCc5cccnc54)nc23)CC1
[1]
  IC50: 640 nM
[3]
  CC50: > 5000 nM
[16]
  Activity: Active

## CC(C)CN(Cc1cn2c(N3CCN(C)CC3)cccc2n1)[C@H]1CCCc2cccnc21
[1]
  IC50: 23 nM
[3]
  CC50: 20000 nM
[16]
  Activity: Active

## CCCN(Cc1cn2c(N3CCN(C)CC3)cccc2n1)[C@H]1CCCc2cccnc21
[1]
  IC50: 3 nM
[2]
  Activity: 5
[3]
  CC50: 6700 nM
[4]
  clearance: 8.9 mL/min/kg
[7]
  Vd: 6.2 L/kg
[10]
  half-life: 10.7 h
[13]
  bioavailability: 41%
[16]
  Activity: Active

## CN1CCN(c2cccc3nc(CN(C)[C@H]4CCCc5cccnc54)[nH]c23)CC1
[2]
  Activity: 80
[3]
  CC50: > 5000 nM
[16]
  Activity: Active

## CN1CCN(c2cccc3nc(CN(C)[C@@H]4CCCc5cccnc54)cn23)CC1
[1]
  IC50: 84 nM
[3]
  CC50: 12600 nM
[16]
  Activity: Active

## CCN1CCN(c2cccc3nc(CN(C)[C@H]4CCCc5cccnc54)cn23)CC1
[1]
  IC50: 4 nM
[2]
  Activity: 10
[3]
  CC50: 3900 nM
[16]
  Activity: Active

## CCN(Cc1cn2c(N3CCN(C)CC3)cccc2n1)[C@H]1CCCc2cccnc21
[1]
  IC50: 2 nM
[2]
  Activity: 1.5
[3]
  CC50: 8100 nM
[16]
  Activity: Active

## CN(C)C1CCN(c2cccc3nc(CN(C)[C@H]4CCCc5cccnc54)cn23)CC1
[1]
  IC50: 4 nM
[2]
  Activity: 8
[3]
  CC50: 3400 nM
[4]
  clearance: 5.7 mL/min/kg
[7]
  Vd: 5.1 L/kg
[10]
  half-life: 10 h
[13]
  bioavailability: 7%
[16]
  Activity: Active

## CN(C)[C@@H]1CCN(c2cccc3nc(CN(C)[C@H]4CCCc5cccnc54)cn23)C1
[1]
  IC50: 43 nM
[2]
  Activity: 5
[3]
  CC50: 4900 nM
[16]
  Activity: Active

## CN(Cc1cn2c(N3CCC(N)CC3)cccc2n1)[C@H]1CCCc2cccnc21
[1]
  IC50: 4 nM
[3]
  CC50: 6300 nM
[16]
  Activity: Active

## CC(C)N(Cc1cn2c(N3CCN(C)CC3)cccc2n1)[C@H]1CCCc2cccnc21
[1]
  IC50: 5 nM
[2]
  Activity: 5
[3]
  CC50: 8900 nM
[16]
  Activity: Active

## CC(C)N1CCN(c2cccc3nc(CN(C)[C@H]4CCCc5cccnc54)cn23)CC1
[1]
  IC50: 3 nM
[2]
  Activity: 3.3
[3]
  CC50: 7100 nM
[4]
  clearance: 31 mL/min/kg
[7]
  Vd: 10.6 L/kg
[10]
  half-life: 3.9 h
[13]
  bioavailability: 29%
[16]
  Activity: Active

## CN1CCN(c2cccc3nc(CN(CC4CC4)[C@H]4CCCc5cccnc54)cn23)CC1
[1]
  IC50: 4 nM
[2]
  Activity: 6
[3]
  CC50: 8000 nM
[4]
  clearance: 9.9 mL/min/kg
[7]
  Vd: 6 L/kg
[10]
  half-life: 8.8 h
[13]
  bioavailability: 31%
[16]
  Activity: Active

## CN(Cc1cn2c(N3CCOCC3)cccc2n1)C1CCCc2cccnc21 (racemic)
[1]
  IC50: 690 nM
[3]
  CC50: > 10000 nM
[16]
  Activity: Active
